Laboratory results as given in ChEMBL document CHEMBL5465560, “Selectivity Literature for EUbOPEN Chemogenomic Library” (2024).

Tests used:
[1] = molecular target: Mitogen-activated protein kinase kinase kinase 9 (Homo sapiens) (UniProt P80192); assay: Selectivity interaction (Ambit KINOMEscan and KiNATiv profiling in Jurkat cells) EUB0000090b MAP3K9; assay type: cell-based; details: at 1 µM
[2] = molecular target: NT-3 growth factor receptor (Homo sapiens, UniProt Q16288); assay: Selectivity interaction (SelectScreen profiling (Invitrogen)) EUB0000607a NTRK3; details: at 2 µM
[3] = molecular target: STE20-like serine/threonine-protein kinase (Homo sapiens, UniProt Q9H2G2); assay: Selectivity interaction (ActivX KiNativ screen (ex vivo kinase selectivity in human PBMCs)) EUB0001619a SLK; assay type: cell-based; details: PBMC, at 1 µM
[4] = molecular target: T1, Serine/threonine-protein kinase DCLK2 (Homo sapiens) (UniProt Q8N568); assay: Selectivity interaction (KinomeScan (DiscoverX)) EUB0000045b DCLK2
T1 sequence (whole entry): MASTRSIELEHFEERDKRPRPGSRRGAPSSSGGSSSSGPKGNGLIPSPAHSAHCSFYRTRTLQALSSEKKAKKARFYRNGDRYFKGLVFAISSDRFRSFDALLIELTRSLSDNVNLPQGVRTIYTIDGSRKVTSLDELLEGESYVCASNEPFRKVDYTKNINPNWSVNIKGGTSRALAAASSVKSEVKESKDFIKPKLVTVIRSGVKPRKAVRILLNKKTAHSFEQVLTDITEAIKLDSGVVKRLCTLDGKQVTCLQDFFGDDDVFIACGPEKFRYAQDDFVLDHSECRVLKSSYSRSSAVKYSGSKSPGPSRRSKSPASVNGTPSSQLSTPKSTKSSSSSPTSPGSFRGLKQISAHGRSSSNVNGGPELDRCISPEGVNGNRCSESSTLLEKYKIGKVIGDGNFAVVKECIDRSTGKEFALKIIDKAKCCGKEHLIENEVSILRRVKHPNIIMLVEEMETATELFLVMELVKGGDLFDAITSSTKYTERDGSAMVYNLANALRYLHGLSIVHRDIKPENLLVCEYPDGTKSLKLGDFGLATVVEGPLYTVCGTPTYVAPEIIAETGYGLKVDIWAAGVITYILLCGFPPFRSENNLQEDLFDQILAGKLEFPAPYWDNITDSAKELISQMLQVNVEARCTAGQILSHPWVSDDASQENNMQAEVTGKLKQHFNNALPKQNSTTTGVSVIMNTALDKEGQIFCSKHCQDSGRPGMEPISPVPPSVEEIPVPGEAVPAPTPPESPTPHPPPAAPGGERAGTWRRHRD

[5] = molecular target: T2, 5'-AMP-activated protein kinase catalytic subunit alpha-1 (Homo sapiens, UniProt Q13131); assay: Selectivity interaction (Kinase panel (KiNativ target engagement assay in Jurkat cells)) EUB0001635a PRKAA1; assay type: cell-based; details: Selectivity number of off-targets 0.0, Selectivity number of targets 233.0, Source Knowledge https://www.sciencedirect.com/science/article/pii/S2451945619300674?via%3Dihub, at 1 µM
[6] = molecular target: T2, 5'-AMP-activated protein kinase catalytic subunit alpha-1; assay: Selectivity interaction (ActivX KiNativ screen (kinase selectivity in THP-1 cell lysates)) EUB0000639a PRKAA1; assay type: subcellular; details: lysate, at 0.2 µM
[7] = molecular target: T3, Scaffold protein ILK (Homo sapiens) (UniProt Q13418); assay: Selectivity interaction (ActivX KiNativ screen (kinase selectivity in THP-1 cell lysates)) EUB0000639a ILK; assay type: subcellular; details: lysate, at 1 µM
T3 sequence (whole entry): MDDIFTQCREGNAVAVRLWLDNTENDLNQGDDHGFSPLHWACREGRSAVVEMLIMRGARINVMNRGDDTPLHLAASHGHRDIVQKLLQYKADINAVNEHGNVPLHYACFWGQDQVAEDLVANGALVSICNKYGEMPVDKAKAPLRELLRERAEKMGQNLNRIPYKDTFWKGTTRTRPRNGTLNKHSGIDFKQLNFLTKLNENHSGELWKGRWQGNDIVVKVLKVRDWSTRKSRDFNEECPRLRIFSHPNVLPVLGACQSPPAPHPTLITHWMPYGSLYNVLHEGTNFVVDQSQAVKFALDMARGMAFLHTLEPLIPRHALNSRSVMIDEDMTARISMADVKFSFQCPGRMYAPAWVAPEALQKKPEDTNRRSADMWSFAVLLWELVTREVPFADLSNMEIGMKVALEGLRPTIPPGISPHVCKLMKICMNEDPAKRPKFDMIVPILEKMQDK

[8] = molecular target: Receptor tyrosine-protein kinase erbB-4 (Homo sapiens, UniProt Q15303); assay: Selectivity interaction (KinomeScan (DiscoverX)) EUB0000229b ERBB4; details: at 10 µM
[9] = molecular target: Phosphorylase b kinase gamma catalytic chain, skeletal muscle/heart isoform (Homo sapiens) (UniProt Q16816); assay: Selectivity interaction (KinomeScan (DiscoverX)) EUB0000695a PHKG1; details: at 100 nM
[10] = molecular target: T4, Dual specificity protein kinase TTK (Homo sapiens) (UniProt P33981); assay: Selectivity interaction (KinomeScan (DiscoverX)) EUB0000695a TTK; details: at 100 nM
T4 sequence (whole entry): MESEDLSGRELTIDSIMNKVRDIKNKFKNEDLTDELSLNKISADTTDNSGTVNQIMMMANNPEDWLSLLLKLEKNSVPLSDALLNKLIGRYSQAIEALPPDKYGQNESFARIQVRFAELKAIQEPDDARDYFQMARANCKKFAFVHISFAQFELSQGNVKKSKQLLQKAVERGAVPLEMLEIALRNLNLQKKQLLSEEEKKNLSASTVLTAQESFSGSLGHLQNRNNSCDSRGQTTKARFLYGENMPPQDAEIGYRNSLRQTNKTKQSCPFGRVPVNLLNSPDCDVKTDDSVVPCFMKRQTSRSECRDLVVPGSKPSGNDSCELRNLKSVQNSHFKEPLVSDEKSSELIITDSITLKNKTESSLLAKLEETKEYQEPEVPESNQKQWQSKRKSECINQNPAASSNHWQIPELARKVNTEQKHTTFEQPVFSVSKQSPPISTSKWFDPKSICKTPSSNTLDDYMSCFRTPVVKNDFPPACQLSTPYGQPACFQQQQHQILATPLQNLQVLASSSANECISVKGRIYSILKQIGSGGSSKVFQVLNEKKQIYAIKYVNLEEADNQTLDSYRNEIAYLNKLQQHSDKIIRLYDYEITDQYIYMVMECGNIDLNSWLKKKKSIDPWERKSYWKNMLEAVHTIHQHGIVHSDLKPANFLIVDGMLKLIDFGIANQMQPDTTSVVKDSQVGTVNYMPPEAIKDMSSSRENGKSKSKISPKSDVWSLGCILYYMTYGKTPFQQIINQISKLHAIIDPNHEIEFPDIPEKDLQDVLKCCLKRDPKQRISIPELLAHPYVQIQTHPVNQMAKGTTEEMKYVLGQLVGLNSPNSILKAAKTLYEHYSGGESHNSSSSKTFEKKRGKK

T2 sequence (Q13131 whole entry, looked up): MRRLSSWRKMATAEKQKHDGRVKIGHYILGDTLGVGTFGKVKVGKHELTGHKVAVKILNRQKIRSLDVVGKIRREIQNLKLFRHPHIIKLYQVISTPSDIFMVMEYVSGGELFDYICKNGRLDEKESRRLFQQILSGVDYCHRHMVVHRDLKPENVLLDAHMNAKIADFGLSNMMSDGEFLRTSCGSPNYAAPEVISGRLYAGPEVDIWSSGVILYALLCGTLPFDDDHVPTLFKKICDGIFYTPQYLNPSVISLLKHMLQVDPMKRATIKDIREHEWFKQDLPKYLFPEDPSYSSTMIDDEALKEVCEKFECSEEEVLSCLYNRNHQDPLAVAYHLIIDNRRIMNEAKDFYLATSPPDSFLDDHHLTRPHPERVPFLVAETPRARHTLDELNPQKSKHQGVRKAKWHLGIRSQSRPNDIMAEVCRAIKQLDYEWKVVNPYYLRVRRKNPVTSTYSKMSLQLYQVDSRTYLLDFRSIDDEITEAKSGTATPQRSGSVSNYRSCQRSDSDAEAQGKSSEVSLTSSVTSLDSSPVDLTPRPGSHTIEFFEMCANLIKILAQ
Chain of STE20-like serine/threonine-protein kinase (Q9H2G2 whole entry, looked up): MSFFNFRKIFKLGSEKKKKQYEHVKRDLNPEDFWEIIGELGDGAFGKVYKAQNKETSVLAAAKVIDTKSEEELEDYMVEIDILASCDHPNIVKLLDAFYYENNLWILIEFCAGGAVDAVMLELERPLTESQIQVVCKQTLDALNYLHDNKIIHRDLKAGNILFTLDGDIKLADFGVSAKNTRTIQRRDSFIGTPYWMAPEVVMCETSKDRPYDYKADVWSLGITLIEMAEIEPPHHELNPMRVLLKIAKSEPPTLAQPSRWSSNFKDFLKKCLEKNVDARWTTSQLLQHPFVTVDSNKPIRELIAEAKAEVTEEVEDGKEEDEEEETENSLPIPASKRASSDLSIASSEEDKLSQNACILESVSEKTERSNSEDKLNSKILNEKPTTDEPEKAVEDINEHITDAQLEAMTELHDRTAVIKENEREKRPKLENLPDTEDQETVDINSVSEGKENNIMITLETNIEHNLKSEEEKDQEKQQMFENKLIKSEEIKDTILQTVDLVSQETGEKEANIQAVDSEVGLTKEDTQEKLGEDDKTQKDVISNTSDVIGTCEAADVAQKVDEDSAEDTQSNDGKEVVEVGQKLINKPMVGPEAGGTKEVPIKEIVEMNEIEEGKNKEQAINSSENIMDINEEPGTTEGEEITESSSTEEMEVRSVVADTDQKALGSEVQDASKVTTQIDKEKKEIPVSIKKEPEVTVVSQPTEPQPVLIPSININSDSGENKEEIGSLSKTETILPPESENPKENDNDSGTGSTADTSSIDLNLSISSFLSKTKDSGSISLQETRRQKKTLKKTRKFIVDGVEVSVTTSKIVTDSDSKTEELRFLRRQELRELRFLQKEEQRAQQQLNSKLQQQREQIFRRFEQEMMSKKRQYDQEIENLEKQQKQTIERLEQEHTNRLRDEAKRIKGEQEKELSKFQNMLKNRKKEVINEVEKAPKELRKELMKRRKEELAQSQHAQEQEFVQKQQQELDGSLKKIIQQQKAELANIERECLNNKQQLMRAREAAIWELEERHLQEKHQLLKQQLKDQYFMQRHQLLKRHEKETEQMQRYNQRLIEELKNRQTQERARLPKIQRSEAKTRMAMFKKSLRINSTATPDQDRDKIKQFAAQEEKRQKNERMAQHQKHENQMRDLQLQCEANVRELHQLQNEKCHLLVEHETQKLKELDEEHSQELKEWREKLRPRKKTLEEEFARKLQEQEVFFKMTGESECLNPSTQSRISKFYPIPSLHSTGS
Chain of Receptor tyrosine-protein kinase erbB-4 (Q15303 whole entry, canonical isoform): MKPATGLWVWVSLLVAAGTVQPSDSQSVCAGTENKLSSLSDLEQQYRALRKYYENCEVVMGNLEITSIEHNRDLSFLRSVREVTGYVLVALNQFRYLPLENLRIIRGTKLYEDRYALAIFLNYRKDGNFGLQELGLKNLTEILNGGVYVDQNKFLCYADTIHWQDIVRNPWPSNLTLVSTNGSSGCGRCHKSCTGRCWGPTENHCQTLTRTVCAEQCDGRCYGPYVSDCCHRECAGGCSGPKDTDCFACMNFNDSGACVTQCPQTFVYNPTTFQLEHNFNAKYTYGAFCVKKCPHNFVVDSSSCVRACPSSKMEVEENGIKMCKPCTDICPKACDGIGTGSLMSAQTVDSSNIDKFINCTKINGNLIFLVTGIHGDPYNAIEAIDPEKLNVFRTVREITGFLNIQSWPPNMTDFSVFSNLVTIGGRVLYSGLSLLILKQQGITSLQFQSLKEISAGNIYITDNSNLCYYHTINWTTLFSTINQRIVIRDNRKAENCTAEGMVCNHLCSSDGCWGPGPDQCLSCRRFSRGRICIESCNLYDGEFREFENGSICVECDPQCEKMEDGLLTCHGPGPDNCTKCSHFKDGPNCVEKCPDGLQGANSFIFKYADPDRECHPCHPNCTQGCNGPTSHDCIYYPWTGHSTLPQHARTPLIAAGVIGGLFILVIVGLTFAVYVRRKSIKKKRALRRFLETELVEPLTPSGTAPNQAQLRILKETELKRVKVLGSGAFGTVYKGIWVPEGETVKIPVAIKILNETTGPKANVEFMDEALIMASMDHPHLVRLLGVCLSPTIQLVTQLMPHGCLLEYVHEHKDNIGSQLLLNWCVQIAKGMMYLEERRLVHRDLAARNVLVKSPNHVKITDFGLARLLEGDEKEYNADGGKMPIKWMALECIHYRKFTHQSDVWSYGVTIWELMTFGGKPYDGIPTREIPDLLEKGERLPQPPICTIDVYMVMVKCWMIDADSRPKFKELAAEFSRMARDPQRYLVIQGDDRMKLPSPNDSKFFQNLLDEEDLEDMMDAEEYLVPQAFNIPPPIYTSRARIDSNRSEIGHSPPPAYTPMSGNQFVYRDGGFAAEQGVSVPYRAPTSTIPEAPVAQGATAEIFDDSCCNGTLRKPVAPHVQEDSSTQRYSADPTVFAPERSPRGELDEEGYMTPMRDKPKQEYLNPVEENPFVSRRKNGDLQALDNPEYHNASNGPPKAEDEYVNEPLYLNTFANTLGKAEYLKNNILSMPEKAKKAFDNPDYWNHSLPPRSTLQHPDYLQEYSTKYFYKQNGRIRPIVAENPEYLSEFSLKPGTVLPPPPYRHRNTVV
Chain of Mitogen-activated protein kinase kinase kinase 9 (Homo sapiens) (P80192 whole entry, looked up): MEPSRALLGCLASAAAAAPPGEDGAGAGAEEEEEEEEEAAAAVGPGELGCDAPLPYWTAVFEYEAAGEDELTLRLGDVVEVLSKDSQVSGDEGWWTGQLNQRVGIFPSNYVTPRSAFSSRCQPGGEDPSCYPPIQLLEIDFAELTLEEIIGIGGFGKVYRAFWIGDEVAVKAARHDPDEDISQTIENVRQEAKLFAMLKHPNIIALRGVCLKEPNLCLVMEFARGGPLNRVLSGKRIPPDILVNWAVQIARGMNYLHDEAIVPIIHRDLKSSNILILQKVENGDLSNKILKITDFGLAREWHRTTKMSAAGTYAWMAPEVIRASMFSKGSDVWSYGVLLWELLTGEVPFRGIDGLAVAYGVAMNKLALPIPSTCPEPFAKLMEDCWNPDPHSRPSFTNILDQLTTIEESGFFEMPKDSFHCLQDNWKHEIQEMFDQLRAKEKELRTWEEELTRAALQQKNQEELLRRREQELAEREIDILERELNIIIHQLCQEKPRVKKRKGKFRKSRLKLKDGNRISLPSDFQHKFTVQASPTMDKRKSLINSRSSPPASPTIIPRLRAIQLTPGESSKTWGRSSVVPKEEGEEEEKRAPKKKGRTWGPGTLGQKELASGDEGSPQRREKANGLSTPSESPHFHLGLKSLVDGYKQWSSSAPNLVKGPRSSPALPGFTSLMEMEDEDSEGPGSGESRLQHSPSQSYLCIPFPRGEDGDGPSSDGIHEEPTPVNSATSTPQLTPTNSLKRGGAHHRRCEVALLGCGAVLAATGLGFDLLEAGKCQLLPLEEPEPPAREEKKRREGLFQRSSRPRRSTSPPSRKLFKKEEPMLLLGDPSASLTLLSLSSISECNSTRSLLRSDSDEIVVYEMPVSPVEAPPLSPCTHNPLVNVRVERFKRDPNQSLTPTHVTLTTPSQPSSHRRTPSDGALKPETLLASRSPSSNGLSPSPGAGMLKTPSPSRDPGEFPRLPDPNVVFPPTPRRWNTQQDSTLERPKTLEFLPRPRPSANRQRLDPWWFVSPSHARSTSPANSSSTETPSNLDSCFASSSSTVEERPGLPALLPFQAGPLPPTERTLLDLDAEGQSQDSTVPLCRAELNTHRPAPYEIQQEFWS
Chain of NT-3 growth factor receptor (Q16288 32-839 limits assumed): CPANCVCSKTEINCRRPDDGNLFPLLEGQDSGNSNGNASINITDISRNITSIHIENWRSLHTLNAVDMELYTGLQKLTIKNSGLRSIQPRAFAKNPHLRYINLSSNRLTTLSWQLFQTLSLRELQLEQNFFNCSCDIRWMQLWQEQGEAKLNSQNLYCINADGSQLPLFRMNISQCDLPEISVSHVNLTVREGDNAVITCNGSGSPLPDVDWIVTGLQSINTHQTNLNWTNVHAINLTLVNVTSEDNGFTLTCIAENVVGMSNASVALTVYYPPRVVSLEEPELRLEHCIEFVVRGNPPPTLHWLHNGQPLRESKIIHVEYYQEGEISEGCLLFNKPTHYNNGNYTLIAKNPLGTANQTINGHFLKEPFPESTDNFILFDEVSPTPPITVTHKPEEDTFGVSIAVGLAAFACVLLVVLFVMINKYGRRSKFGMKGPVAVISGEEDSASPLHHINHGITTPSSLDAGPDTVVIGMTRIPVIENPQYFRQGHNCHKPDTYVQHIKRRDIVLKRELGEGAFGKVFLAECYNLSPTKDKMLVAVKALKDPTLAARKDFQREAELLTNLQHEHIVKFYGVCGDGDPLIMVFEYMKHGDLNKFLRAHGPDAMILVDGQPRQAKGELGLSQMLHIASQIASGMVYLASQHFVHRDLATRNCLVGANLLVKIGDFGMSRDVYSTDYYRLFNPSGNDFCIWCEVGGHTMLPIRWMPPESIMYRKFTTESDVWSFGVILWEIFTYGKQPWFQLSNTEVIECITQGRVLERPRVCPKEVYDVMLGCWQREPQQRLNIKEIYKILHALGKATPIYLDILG

Q: For CN(C)C/C=C/C(=O)Nc1ccc(C(=O)N2CCCC(Nc3ncc(Cl)c(-c4c[nH]c5ccccc45)n3)C2)cc1 (stereo unspecified), which % of control [1] is on record?
A: 100%

Q: CNC(=O)Nc1ccc(-c2nc(N3CC4CCC(C3)O4)c3cnn(C4CCC5(CC4)OCCO5)c3n2)cc1 was tested. Which % of inhibition [2] did it give?
A: 5%

Q: With N#Cc1cccc(-c2c[nH]c3ncnc(N4CCOCC4)c23)c1 as the molecule, how does the % of inhibition [3] read?
A: 66%

Q: C=CC(=O)Nc1cc(-n2c(=O)ccc3cnc4ccc(-c5ccc(NS(C)(=O)=O)cc5)cc4c32)ccc1C was tested. Which % of control ([4]; at 1 µM) did it give?
A: 100%

Q: And the % of control ([4]; at 10 µM)?
A: 100%

Q: How did the % of engagement [5] turn out when C=CC(=O)Nc1ccc(C(=O)Nc2[nH]nc3c2CN(C(=O)N[C@H](CN(C)C)c2ccccc2)C3(C)C)cc1 was run?
A: -51.7%

Q: Which % of inhibition [6] does the source give for CC[C@@H]1[C@H](F)C(=O)N[C@@H]1COc1nccc2cc(C(N)=O)c(OC)cc12 [ZIMLOVISERTIB] here?
A: -4.3%

Q: What about the % of inhibition [7] of the same molecule?
A: -17.5%

Q: COc1cc(N(C)c2ccnc3ccc(C(F)(F)F)cc23)cc(OC)c1OC was tested. Which % binding [8] did it give?
A: 81%

Q: Which % of control [9] does the source give for Cc1cc(F)c(C(=O)Nc2cccc(-c3nncn3C(C)C)n2)cc1-n1cnc(C2CC2)c1 here?
A: 98%

Q: And the % of control [10]?
A: 87%
